Measured values: PubChem BioAssay AID463074 (Broad Institute, 2010)
The source made the active and inactive calls.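 Rule for the calls: active = AC50 no more than tenfold above the top dose tested, or full inhibition at every dose with a flat fit (cut at about 19 µM in these data); inconclusive = flat curve fit with inhibition between 30% and 70%, or poor fit; inactive = AC50 more than tenfold above the top dose tested.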

System: HMLE_sh_eGFP viability, CellTiter-Glo luminescence, 72 h
Experiment: viability loss of HMLE_sh_eGFP cells – cell-based, luminescence, counter-screen for HMLE_sh_ECad selective toxicity project, dose response (AID 463074);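 note: counterscreen control line to flag general toxicity for the HMLE_sh_ECad screen; potency for loss of viability as luminescence drops below DMSO wells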

Structure (SMILES) | AC50
CC(=O)c1ccc(N2CCC(c3cc(-c4ccc(Cl)cc4)n[nH]3)CC2)c([N+](=O)[O-])c1 | 3.62 µM
Cn1nc(C(F)(F)F)c(C(=O)Nc2cccc(C(F)(F)F)c2)c1SCc1ccc(Cl)cc1 | 7.09 µM
CC(c1ccccc1)N1C(=O)/C(=C/c2ccncc2)SC1=S (stereo not drawn) | 17.2 µM
Cc1cc(=O)[nH]c(N/N=C/c2ccc(-c3ccc(F)cc3)o2)n1 | 18.1 µM
Cc1ccc(/C=C/C(=O)N2CC(C)CC(C)C2)o1 (stereo not drawn) | 17 µM
O=C(Nc1cccc(-c2csc(-c3ccccc3)n2)c1)c1cccs1 | 5.22 µM
CCc1ccc([C@@H]2CC=C(C(=O)O)[C@H](c3ccc(Cl)cc3)N2S(=O)(=O)c2ccc(C)cc2)cc1 | 7.1 µM
CCc1cc(-c2n[nH]c(C)c2Oc2ccc(C(C)C)cc2)c(O)cc1O | 3.65 µM
OCCCNc1nc(-c2ccccc2)c2cc(Br)ccc2n1 | > 19.5 µM (inactive)
O=C(/C=C/Sc1ccccc1)c1ccc(Cl)cc1 | 4.56 µM
O=C(/C(=C/c1cccc(Cl)c1)c1nc2ccccc2[nH]1)c1ccccc1 | 3.35 µM
CC(C)(C)c1ccc(/C=C(\c2nc3ccccc3[nH]2)S(=O)(=O)c2ccccc2)cc1 | 1.42 µM
O=C(Nc1ccc(O)c(-c2nc3ccccc3o2)c1)C1(c2ccc(Br)cc2)CCCC1 | > 19.5 µM (inactive)
S=C1NC[C@H](Cc2ccccc2)N1CCCCC1CCCCC1 | 4.19 µM
CCn1c2ccccc2c2cc(NS(=O)(=O)c3ccc(C)cc3)ccc21 | 4.53 µM
O=C(Nc1ccc(Cl)c(Cl)c1)Nc1ccccc1O | 12.4 µM
c1ccc(CN2CCC(Nc3nc(-c4cccs4)nc4ccccc34)CC2)cc1 | 6.8 µM
CC(C)c1cccc(C(C)C)c1OC(=O)[C@H]1OC(c2ccc(Br)cc2)=C[C@@H]1c1ccc(Br)cc1 | 4.64 µM
CCCSc1nnc(CSc2nc3ccccc3s2)n1-c1ccccc1 | 3.01 µM
COC(=O)c1ccc(COc2ccccc2/C=C(\C#N)C(=O)Nc2c(C)cc(C)cc2C)cc1 | 2.08 µM
Cc1ccc2nc(NC(=O)c3cccc(-c4cc5ccccc5oc4=O)c3)sc2c1 | > 19.5 µM (inactive)
C[C@H]1CN([C@@H](C)CO)C(=O)Cc2cc(NC(=O)CCC(F)(F)F)ccc2O[C@H]1CN(C)Cc1ccc(-c2ccccc2)cc1 | 6.9 µM
C/C(=N\Nc1ccccc1)c1c(O)n(Cc2ccccc2)c(=O)[nH]c1=O | 1.9 µM
CCCn1nc([N+](=O)[O-])c(C(C#N)c2nc3ccccc3o2)c(Cl)c1=O (stereo not drawn) | 5.81 µM
O=C1C=C(c2cccs2)C[C@H](c2ccccc2)[C@H]1n1nnc([N+](=O)[O-])n1 | 0.274 µM

Structure (SMILES) | AC50
c1ccc(C[C@H]2CNCCN2CCCCC2CCCCC2)cc1 | 6.83 µM
Cc1ccc(NC(=S)N/N=C/c2c(Cl)cccc2Cl)c(C)c1 | 0.369 µM
O=C(NCc1cccnc1)/C(=C\c1ccc(-c2cccc(Cl)c2)o1)S(=O)(=O)c1ccccc1 | 3.13 µM
Cc1ccc(C)c(NC(=O)c2ccccc2NS(=O)(=O)c2cc([N+](=O)[O-])ccc2C)c1 | 4.27 µM
C=C(C)[C@@H]1CC[C@]2(C(=O)O)CC[C@]3(C)[C@H](CC[C@@H]4[C@@]5(C)CC[C@H](O)C(C)(C)[C@@H]5CC[C@]43C)[C@@H]12 | 3.97 µM
COc1ccc(C=C2C=C(C(C)(C)C)C(=O)C(C(C)(C)C)=C2)cc1OC | 3.47 µM
CCn1c(=O)c([N+](=O)[O-])c(Cl)c2ccccc21 | 3.56 µM
CSc1ccc2c(c1)C(N1CCN(C)CC1)Cc1ccccc1S2 (stereo not drawn) | 15.1 µM
CCCc1ccc(O)c(N=Cc2cc(Br)cc(OCC)c2O)c1 | 9.03 µM
CCCCCc1cc(=O)oc2c(C(CCN3CCCC(C)C3)c3ccc(N(C)C)cc3)c(OC)cc(OC)c12 (stereo not drawn) | 6.69 µM
Cc1cc(OCC(=O)Nc2ccc(S(=O)(=O)NC3=NCCCCC3)cc2)c(C(C)C)cc1Cl | 10.2 µM
CC(C)N1CCN(Cc2ccc(OCc3ccccc3)cc2)CC1CCO (stereo not drawn) | 11.5 µM
CCCCCCSc1cc(-c2nc3cc(C)ccn3c2NCCCC)ccc1OC | 8.88 µM
Cc1cc(C(=O)NNc2ccc(Cl)cc2)no1 | 1.37 µM
CCCCC1CCC(C(=O)N(CC(C)C)c2c(N)n(Cc3ccccc3)c(=O)[nH]c2=O)CC1 (stereo not drawn) | 4.62 µM
CC(=O)Nc1ccc(SC[C@H](C)CN2CC[C@H](C(C)(C)C)CCC2=O)cc1 | 4.98 µM
O=C(Nc1ccc(-c2csc(Nc3cccc(C(F)(F)F)c3)n2)cc1)c1ccccc1 | 1.96 µM
O=C(O)c1cccc(N/N=C(\N=Nc2ccccc2)c2ccccc2)c1 | 4.25 µM
Cc1cc2nc(NCCCO)n(CC(=O)c3cc(C(C)(C)C)c(O)c(C(C)(C)C)c3)c2cc1C | 3.56 µM
COc1ccc2sc(-c3ccc(SC)cc3)c(-c3ccc(O)cc3)c2c1 | 2.42 µM
COc1cc(SC#N)ccc1N=Cc1c(C)[nH]n(-c2ccc(C)c(C)c2)c1=O | 4.52 µM
CCCCCCCC/C=C\CCCCCCCC(=O)NCCc1ccc(O)c(O)c1 | 4.61 µM
COc1ccc(Cn2c(SCc3ccccc3C)nc3cc(OC)c(OC)cc3c2=N)cc1 | 3.7 µM
O=C1C2C3C=CC(C4CC34)C2C(=O)N1/N=C/c1ccc(-c2ccc(F)cc2[N+](=O)[O-])o1 (stereo not drawn) | 1.21 µM
OC(COc1ccc2ccccc2c1Br)Cn1cnc(-c2ccccc2)c1 (stereo not drawn) | 6.05 µM

Structure (SMILES) | AC50
O=S(=O)(Nc1ccc(O)c(Sc2nc3ccccc3s2)c1)c1cccc2ccccc12 | 5.83 µM
COc1ccc(-c2cccc([C@H]3[C@@H]4C=CCC[C@@]4(C)C(=O)N3Cc3ccccc3)c2)cc1 | 7.45 µM
C[C@]12CC[C@H]3C(CCC4(O)CC(O)CC[C@]34C=O)C1=CC[C@H]2c1ccc(=O)oc1 (stereo partly drawn) | 3.6 µM
Cc1cc(C)cc(NS(=O)(=O)c2ccc3[nH]cc(C(=O)NCc4ccco4)c(=O)c3c2)c1 | 1.5 µM
CC(C)Oc1ccc(CNC(=O)CC(c2ccccc2)c2cc(Cl)ccc2O)cc1 (stereo not drawn) | 5.58 µM
CSc1c(SCc2ccccc2)cnn(-c2ccccc2)c1=O | 5.71 µM
CCC/C(=C1/c2ccccc2C(=O)N1c1ccccc1)c1ccc2[nH]ccc2c1 | 1.67 µM
Oc1ccccc1/C=N/Nc1nccnc1Cl | 5.91 µM
CC1(C)CCC[C@]2(C)[C@H]3Cc4cc(O)ccc4O[C@]3(C)CC[C@@H]12 | 6.89 µM
C=CCn1c(SCCC)nc2sc3c(c2c1=O)CCc1ccccc1-3 | 2.26 µM
O=C1CC(N(CCc2ccccc2)C(=S)Nc2cc(Cl)ccc2Cl)C(=O)N1c1c(Cl)cccc1Cl (stereo not drawn) | > 19.5 µM (inactive)
C=CCCC(=O)Nc1nc(C)c(-c2csc(Nc3cc(OC)ccc3OC)n2)s1 | 1.02 µM
O=C1c2cccc3cccc(c23)C(=O)N1CCN1CCN(CC(O)COc2ccc3ccccc3c2)CC1 (stereo not drawn) | 6.81 µM
O=C(NCc1ccco1)c1cc(-c2ccc3c(c2)OCO3)on1 | 0.973 µM
CN(Cc1ccco1)c1ncnc2ccc(-c3ccc4c(ccn4C)c3)cc12 | 3.01 µM
CCOc1ccccc1N(C(=O)Nc1ccc(Cl)cc1)C1=NCCS1 | > 19.5 µM (inactive)
COc1ccc(/C=C2\C(=O)c3ccccc3OC2c2ccccc2)cc1 (stereo not drawn) | 1.38 µM
CN1CCN(C2=Cc3ccc(Cl)cc3Sc3ccc(F)cc32)CC1 | 6.74 µM
COc1cc2c(cc1NC(=O)Nc1ccc(C)cc1)oc1ccccc12 | 11.3 µM
CC1(C)CC[C@]2(CO)[C@@H](O)C[C@]3(C)C(=CCC4[C@@]5(C)CC[C@H](O)C(C)(C)C5CC[C@]43C)[C@@H]2C1 (stereo partly drawn) | 4.35 µM
Cc1ccc(CCC(=O)Nc2ncc(Cc3cc(Cl)ccc3Cl)s2)o1 | 13.6 µM
COc1ccc(Nc2nc(N)c([N+](=O)[O-])c(NC3CCCCC3)n2)cc1 | 4.58 µM
COc1ccc(Br)cc1C(C[N+](=O)[O-])c1c(N)n(C)c(=O)n(C)c1=O (stereo not drawn) | 4.93 µM
